Experimental data as given in patent US20040248958A1, “Heterocyclic amide derivatives” (priority 2001, published 2004).
Like-named read-outs stand apart in the source and are kept apart here.

Assay: logP determination by HPLC on reversed-phase column (EEC Directive 79/831 Annex V.A8)
Assay type: physicochemical
Conditions: reversed-phase HPLC column (C18), preparation examples
Method: The logP values indicated were determined in accordance with EEC Directive 79/831 Annex V.A8 by means of HPLC (High Performance Liquid Chromatography) on a reversed-phase column (C 18). Temperature: 43° C. (a) Eluents for determination in the acidic range: 0.1% aqueous phosphoric acid, acetonitriie; linear gradient from 10% acetonitrile to 90% acetonitrile. (b) Eluents for determination in the neutral range: 0.01 molar aqueous phosphate buffer solution, acetonitrile; linear gradient from 10% acetonitrile to 90% acetonitrile.

[1] = pH 2.3, HPLC C18, 43° C., read-out: logP (pH 2.3)

Compound | chromatographic logP [1] | chromatographic logP (pH 7.5, HPLC C18, 43° C., read-out: logP (pH 7.5))
CCc1ccc(C(=O)Nn2c(-c3cc(C)cc(C)c3)nc(C)c2C)cc1 [Example I-1] | 1.97 | –
Cc1ccc(C(=O)Nn2c(-c3ccccc3)nc(C)c2C)cc1 [Example I-2] | – | 2.17
Cc1cc(C)cc(-c2nc(C)c(C)n2N)c1 [II-1] | 0.96 | –
Cc1ccc(S(=O)(=O)Nn2c(-c3cc(C)cc(C)c3)nc(C)c2C)cc1 [IV-1] | 1.69 | –
